Values after ≈ are worked out from the molar mass of the structure shown. Bounds are passed on as bounds.

Experiment [1] has as its target T1, Proline--tRNA ligase, cytoplasmic (Candida albicans, UniProt P78600).
T1 sequence (P78600 whole entry): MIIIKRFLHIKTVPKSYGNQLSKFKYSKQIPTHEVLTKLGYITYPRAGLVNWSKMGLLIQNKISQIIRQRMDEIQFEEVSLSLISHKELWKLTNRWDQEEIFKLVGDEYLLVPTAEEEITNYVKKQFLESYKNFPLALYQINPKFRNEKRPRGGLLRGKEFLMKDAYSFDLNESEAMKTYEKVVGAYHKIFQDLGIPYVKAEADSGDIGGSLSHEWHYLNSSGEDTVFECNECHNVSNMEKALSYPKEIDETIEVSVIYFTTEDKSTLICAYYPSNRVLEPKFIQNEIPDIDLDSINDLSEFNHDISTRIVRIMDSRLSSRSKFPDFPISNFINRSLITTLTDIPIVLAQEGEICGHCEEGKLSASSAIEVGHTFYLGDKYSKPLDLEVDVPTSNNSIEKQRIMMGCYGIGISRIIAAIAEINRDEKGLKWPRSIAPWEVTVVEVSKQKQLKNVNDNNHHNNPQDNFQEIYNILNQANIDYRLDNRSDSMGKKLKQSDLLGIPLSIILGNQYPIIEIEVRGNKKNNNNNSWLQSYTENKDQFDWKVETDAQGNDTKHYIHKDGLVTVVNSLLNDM
The experiment can be described thus: Aminoacylation activity against Candida albicans prolyl-tRNA synthetase.

Experiment [2] addresses Bifunctional glutamate/proline--tRNA ligase (Homo sapiens, UniProt P07814). Put plainly: Aminoacylation activity against human prolyl-tRNA synthetase.
A short description of experiment [3]: Minimum inhibitory concentration (MIC) against Candida albicans (has cellular activity). It is filed as functional.
Experiment [4] relates to Candida albicans. Put plainly: Compound was evaluated for the minimum inhibitory concentration (MIC) against Candida albicans (no cell activity). It is filed as functional.
Experiment [5] is described as follows: Competitive inhibition against Candida albicans prolyl-tRNA synthetase (Ca. ProRS) with respect to ATP.
The nature of experiment [6]: Non-competitive inhibition against Candida albicans prolyl-tRNA synthetase (Ca. ProRS) with respect to proline.

Bifunctional glutamate/proline--tRNA ligase, sequence (P07814 whole entry): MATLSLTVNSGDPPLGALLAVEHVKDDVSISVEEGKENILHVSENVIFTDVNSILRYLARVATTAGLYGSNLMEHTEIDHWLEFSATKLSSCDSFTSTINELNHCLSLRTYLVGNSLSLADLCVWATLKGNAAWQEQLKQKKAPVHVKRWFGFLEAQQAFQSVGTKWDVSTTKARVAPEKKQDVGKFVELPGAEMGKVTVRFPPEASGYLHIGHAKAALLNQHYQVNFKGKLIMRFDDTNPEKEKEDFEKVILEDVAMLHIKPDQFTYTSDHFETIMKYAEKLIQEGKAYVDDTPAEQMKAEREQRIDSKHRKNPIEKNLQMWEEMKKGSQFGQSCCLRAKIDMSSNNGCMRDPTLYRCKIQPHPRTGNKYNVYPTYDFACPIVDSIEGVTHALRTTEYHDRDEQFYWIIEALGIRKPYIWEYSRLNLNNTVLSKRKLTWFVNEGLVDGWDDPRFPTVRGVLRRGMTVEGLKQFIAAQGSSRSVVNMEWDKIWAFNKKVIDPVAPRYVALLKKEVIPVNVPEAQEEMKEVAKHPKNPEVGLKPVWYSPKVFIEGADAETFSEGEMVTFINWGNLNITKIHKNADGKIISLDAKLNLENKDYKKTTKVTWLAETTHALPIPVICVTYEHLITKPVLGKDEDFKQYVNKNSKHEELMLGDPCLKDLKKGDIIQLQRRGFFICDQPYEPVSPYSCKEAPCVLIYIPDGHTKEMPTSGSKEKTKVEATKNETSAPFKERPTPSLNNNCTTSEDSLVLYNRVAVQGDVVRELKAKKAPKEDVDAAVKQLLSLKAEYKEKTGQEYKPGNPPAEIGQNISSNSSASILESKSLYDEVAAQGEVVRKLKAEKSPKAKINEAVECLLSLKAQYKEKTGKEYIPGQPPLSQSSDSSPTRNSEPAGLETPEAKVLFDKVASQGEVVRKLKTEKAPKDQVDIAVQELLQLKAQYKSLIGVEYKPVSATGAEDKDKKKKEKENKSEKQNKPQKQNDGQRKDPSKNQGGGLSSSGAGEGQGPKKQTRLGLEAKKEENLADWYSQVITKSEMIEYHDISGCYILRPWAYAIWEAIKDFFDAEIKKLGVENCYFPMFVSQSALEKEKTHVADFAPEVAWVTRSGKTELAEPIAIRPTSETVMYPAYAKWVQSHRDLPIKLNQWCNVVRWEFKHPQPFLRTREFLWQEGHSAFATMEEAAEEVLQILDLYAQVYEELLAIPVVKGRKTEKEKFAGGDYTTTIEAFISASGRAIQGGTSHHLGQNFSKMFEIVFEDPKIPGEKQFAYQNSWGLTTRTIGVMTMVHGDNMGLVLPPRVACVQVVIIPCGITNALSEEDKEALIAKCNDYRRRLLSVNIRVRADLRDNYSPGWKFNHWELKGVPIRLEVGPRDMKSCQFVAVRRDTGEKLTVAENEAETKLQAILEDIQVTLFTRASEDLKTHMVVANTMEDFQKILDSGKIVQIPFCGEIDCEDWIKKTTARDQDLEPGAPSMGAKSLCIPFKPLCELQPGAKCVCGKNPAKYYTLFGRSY

What is called IC50 is the concentration that gives 50% inhibition. Low values mean greater potency, high ones weaker potency. Take `O=C(O)c1cc(-c2ccc(Br)cc2)nc2c(C(F)(F)F)cc(Br)cc12`: the half-maximal inhibitory concentration (IC50) worked out at 0.22 µM in experiment [1] and 56 µM in experiment [2].
Turning to `O=C(O)c1cc(-c2ccco2)nc2ccccc12`, the IC50 in experiment [1] and in experiment [2] was greater than 100 µM in each case.
On to `O=C(O)c1cc(-c2ccc(Br)cc2)nc2ccc(S(=O)(=O)O)cc12`, for which the concentration for half-maximal inhibition (IC50) in experiment [1] was 15 µM; in experiment [2], greater than 100 µM.
The matching figures for `COC(=O)C(Cc1ccccc1)NC(=O)c1cc(-c2ccc(Br)cc2)nc2c(C)cc(Cl)cc12` (configuration not stated): 5.7 µM and greater than 100 µM.
The term MIC denotes the smallest concentration in the dilution series that meets the test's criterion for growth inhibition. A higher MIC goes with a less susceptible organism. On to `Cc1c(Br)ccc2c(C(=O)O)cc(-c3ccc(Br)cc3)nc12`, for which the half-inhibitory concentration (IC50) in experiment [1] turned out to be 0.15 µM; in experiment [2] it was 70 µM. In addition, the MIC in experiment [3] came out at 25 µg/mL (≈ 59.4 µM).
For `Nc1ccc2nc(-c3ccc(Br)cc3)cc(C(=O)O)c2c1`, the IC50 in experiment [1] was determined as 3.3 µM; in experiment [2] it was 95 µM.
The matching figures for `O=C(O)c1cc(-c2ccc(Br)cc2)nc2ccc(Cl)cc12`: 0.026 µM and greater than 20 µM.
As a reminder, the Ki is the dissociation constant of the complex between target and ligand, obtained from inhibition or displacement. In turn, `Cc1cc(Cl)cc2c(C(=O)O)cc(-c3ccc(Br)cc3)nc12` came in with a minimum inhibitory concentration (MIC) in experiment [4] greater than 100 µg/mL. Moreover, the figures for the IC50 in experiment [1] and in experiment [2] were 0.005 µM and greater than 20 µM, respectively. The inhibition constant (Ki) in experiment [5] stood at 0.0051 µM; in experiment [6], 0.015 µM.
On to `O=C(O)c1cc(-c2ccccc2)nc2ccccc12` [CINCHOPHEN], for which the 50% inhibitory concentration (IC50) in experiment [1] and in experiment [2] was greater than 100 µM throughout.
On to `O=C(O)c1cc(-c2ccc3ccccc3c2)nc2ccccc12`, for which the half-maximal inhibitory concentration (IC50) in experiment [1] was 3.6 µM; in experiment [2], greater than 100 µM.
Take `O=C(O)c1cc(-c2ccc(Br)cc2)nc2cc(Cl)cc(Cl)c12`: the half-inhibitory concentration (IC50) in experiment [1] was 0.14 µM; in experiment [2], greater than 100 µM.
Consider `Cc1cc(C)c2nc(-c3ccc(Br)cc3)cc(C(=O)O)c2c1`, for which the half-inhibitory concentration (IC50) is 25 µM in experiment [1] and greater than 100 µM in experiment [2].
As for `COc1ccc(-c2cc(C(=O)O)c3ccccc3n2)cc1`, the half-maximal inhibitory concentration (IC50) in experiment [1] and in experiment [2] was greater than 100 µM in each case.
Consider `O=C(O)c1cc(-c2ccc(Br)cc2)nc2ccc(I)cc12`, for which the IC50 is 0.019 µM in experiment [1] and greater than 100 µM in experiment [2].
For `Cc1cc(Cl)cc2c(-c3nn[nH]n3)cc(-c3ccc(Br)cc3)nc12`, the half-maximal inhibitory concentration (IC50) in experiment [1] is 0.03 µM; in experiment [2] it was greater than 100 µM.
Compound `Cc1cc(Cl)cc2c(COS(N)(=O)=O)cc(-c3ccc(Br)cc3)nc12` showed a half-maximal inhibitory concentration (IC50) in experiment [1] of 2.4 µM.
In the case of `O=C(O)c1cc(-c2ccc(Br)cc2)nc2ccccc12`, the IC50 was 0.5 µM in experiment [1] and greater than 100 µM in experiment [2].
The matching figures for `O=C(O)c1cc(-c2ccc(Br)cc2)nc2ccc(-c3ccc(O)cc3)cc12`: 0.35 µM and 35 µM.
With `O=C(O)c1cc(-c2ccc(Cl)s2)nc2ccccc12`, the IC50 is 32 µM in experiment [1] and greater than 100 µM in experiment [2].
In the case of `Cc1cc(Cl)c2nc(-c3ccc(Br)cc3)cc(C(=O)O)c2c1`, the values for the IC50 in experiment [1] and in experiment [2] were 0.025 µM and greater than 20 µM, respectively.
On to `O=C(O)c1cc(-c2ccc(Cl)c(Cl)c2)nc2ccccc12`, for which the IC50 in experiment [1] is 19 µM; in experiment [2] it was greater than 100 µM.
Consider `O=C(O)c1cc(-c2ccncc2)nc2ccccc12`, for which the IC50 in experiment [1] and in experiment [2] was greater than 100 µM throughout.
As to `O=C(O)c1cc(-c2ccc(C(F)(F)F)cc2)nc2ccccc12`, the IC50 in experiment [1] and in experiment [2] was greater than 100 µM in each case.
As for `O=C(O)c1cc(-c2ccc(Br)cc2)nc2c(CO)cc(Cl)cc12`, the values for the half-maximal inhibitory concentration (IC50) in experiment [1] and in experiment [2] were 1.5 µM and greater than 100 µM, respectively.
With `Cc1c(F)ccc2c(C(=O)O)cc(-c3ccc(Br)cc3)nc12`, the half-maximal inhibitory concentration (IC50) in experiment [1] was determined as 0.12 µM; in experiment [2], 60 µM.
The corresponding values for `Cc1cc(Cl)cc2nc(-c3ccc(Br)cc3)cc(C(=O)O)c12` are 1.5 µM and greater than 100 µM.
The matching figures for `Cc1cc(Cl)cc2c(C(=O)OCc3ccc(Cl)c(Cl)c3)cc(-c3ccc(Br)cc3)nc12`: 0.02 µM and greater than 100 µM.
On to `O=C(O)c1cc(-c2ccc(Br)cc2)nc2ccc(Br)cc12`, for which the half-inhibitory concentration (IC50) is 0.025 µM in experiment [1] and greater than 20 µM in experiment [2].
Consider `O=C(O)c1cc(-c2ccc(Br)cc2)nc2ccc(OC(F)(F)F)cc12`, for which the half-inhibitory concentration (IC50) was 0.053 µM in experiment [1] and greater than 100 µM in experiment [2].
As for `Cc1cc(Cl)cc2c(C(=O)OCc3ccc(-c4ccccc4)cc3)cc(-c3ccc(Br)cc3)nc12`, the figures for the half-inhibitory concentration (IC50) in experiment [1] and in experiment [2] were 8.8 µM and greater than 100 µM, respectively.
The matching figures for `Cc1cc(Cl)cc2c(C(=O)OCc3ccco3)cc(-c3ccc(Br)cc3)nc12`: 0.07 µM and greater than 100 µM.
Turning to `O=C(O)/C=C/c1ccc2nc(-c3ccc(Br)cc3)cc(C(=O)O)c2c1`, the concentration for half-maximal inhibition (IC50) in experiment [1] amounted to 1.3 µM; in experiment [2], 80 µM.

For the origin of these results see ChEMBL document CHEMBL1134197, “A series of quinoline analogues as potent inhibitors of C. albicans prolyl tRNA synthetase” (Bioorg Med Chem Lett, 2001).
